Test results from patent US12686673B2 (Blueprint Medicines Corporation, priority 2020, dated 2026).
Structures can show the parent of a compound that is named as a salt. Where two headings read alike, the source gives them in different places.

What was measured:
Format in all cases: cell-based
[1] = target: EGFR(D770_N771insSVD) expressing Ba/F3 stable cell line (Homo sapiens, UniProt P00533, DUP768-770, cells depend on it); test: Cellular proliferation (Alamar Blue) assay, EGFR D770_N771insSVD Ba/F3; conditions: 72 hr, read-out: D770 IC50
Sequence of EGFR(D770_N771insSVD) expressing Ba/F3 stable cell line (P00533 with tags, fused parts or gaps DUP768-770): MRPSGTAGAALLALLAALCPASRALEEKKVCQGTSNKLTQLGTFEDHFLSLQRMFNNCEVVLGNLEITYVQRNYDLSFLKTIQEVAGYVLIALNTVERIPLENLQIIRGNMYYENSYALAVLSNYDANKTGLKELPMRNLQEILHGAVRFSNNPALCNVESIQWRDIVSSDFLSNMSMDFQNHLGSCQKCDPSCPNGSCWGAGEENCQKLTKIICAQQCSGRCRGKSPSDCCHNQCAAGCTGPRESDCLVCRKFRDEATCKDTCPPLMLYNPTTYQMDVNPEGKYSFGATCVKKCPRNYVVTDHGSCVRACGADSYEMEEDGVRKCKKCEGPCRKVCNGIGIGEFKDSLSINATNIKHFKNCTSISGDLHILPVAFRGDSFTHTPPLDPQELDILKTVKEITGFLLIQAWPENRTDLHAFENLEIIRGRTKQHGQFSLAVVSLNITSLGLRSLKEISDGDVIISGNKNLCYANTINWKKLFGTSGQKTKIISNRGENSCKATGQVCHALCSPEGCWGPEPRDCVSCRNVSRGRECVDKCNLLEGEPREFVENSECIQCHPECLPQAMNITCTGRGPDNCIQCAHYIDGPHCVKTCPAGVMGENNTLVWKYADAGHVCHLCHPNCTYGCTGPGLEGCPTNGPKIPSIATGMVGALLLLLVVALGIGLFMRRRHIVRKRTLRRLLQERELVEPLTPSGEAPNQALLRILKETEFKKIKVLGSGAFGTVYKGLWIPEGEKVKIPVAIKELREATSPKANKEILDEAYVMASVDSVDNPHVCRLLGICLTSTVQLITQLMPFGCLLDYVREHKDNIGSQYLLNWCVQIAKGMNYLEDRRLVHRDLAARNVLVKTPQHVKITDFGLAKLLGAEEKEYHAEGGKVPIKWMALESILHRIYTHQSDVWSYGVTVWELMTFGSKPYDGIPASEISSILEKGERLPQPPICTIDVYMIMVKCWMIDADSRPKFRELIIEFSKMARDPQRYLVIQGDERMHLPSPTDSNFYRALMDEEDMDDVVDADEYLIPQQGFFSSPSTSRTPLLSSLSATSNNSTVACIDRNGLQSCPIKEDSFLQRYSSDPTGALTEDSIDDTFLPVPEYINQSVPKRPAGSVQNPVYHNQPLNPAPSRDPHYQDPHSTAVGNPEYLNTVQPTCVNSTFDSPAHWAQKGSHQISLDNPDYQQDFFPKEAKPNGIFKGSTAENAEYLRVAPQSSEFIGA
How it was run: (§1)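 Seventy-two-hour compound exposure (3-fold series, final 10–0.0005 μM) of mutant EGFR/HER2 Ba/F3 cells plated at 15,000/well in RPMI with 10% FBS. Alamar Blue added for 3 h at 37 °C as proliferation read-out.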

[2] = target: EGFR (A767_dupASV) expressing Ba/F3 stable cell line (Homo sapiens, UniProt P00533, DUP767-769, cells depend on it); test: Cellular proliferation (Alamar Blue) assay, EGFR A767_dupASV Ba/F3; conditions: 72 hr, read-out: A767 IC50
Sequence of EGFR (A767_dupASV) expressing Ba/F3 stable cell line (P00533 with tags, fused parts or gaps DUP767-769): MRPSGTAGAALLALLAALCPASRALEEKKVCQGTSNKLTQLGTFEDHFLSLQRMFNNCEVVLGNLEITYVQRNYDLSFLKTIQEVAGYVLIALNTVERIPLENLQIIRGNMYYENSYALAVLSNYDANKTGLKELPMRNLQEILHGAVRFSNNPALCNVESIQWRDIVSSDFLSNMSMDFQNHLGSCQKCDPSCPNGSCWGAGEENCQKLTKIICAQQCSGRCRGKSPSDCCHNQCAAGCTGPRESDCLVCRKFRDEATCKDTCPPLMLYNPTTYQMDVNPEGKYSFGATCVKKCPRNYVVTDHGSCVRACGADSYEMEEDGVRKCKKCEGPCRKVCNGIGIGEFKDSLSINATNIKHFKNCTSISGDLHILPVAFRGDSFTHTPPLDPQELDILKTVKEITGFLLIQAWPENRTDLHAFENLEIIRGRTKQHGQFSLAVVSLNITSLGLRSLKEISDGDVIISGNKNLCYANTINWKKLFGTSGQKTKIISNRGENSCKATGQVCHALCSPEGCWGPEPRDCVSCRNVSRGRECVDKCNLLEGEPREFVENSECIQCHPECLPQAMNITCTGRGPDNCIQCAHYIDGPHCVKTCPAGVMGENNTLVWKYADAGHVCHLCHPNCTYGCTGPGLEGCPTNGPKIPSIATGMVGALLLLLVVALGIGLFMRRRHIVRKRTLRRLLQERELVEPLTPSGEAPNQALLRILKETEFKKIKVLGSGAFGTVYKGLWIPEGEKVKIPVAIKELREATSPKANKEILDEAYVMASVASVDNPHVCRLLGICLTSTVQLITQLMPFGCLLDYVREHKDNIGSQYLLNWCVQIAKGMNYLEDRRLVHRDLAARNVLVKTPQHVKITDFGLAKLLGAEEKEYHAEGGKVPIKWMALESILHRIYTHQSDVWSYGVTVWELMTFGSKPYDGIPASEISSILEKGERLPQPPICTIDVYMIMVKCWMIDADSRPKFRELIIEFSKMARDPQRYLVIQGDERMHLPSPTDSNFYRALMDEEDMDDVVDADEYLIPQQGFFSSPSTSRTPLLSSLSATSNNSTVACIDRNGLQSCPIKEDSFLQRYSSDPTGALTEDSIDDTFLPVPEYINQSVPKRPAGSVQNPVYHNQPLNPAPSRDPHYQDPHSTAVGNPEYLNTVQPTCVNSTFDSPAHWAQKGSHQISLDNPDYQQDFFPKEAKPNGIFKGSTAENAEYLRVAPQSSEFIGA
How it was run: as §1

A431 cells = test: Cellular proliferation (Alamar Blue) assay, A431
[3] = target: HER2 (A775_G776insYVMA) expressing Ba/F3 stable cell line (Homo sapiens, UniProt P04626, DUP772-775, cells depend on it); test: Cellular proliferation (Alamar Blue) assay, HER2 A775_G776insYVMA Ba/F3; conditions: 72 hr, read-out: YVMA IC50
Sequence of HER2 (A775_G776insYVMA) expressing Ba/F3 stable cell line (P04626 with tags, fused parts or gaps DUP772-775): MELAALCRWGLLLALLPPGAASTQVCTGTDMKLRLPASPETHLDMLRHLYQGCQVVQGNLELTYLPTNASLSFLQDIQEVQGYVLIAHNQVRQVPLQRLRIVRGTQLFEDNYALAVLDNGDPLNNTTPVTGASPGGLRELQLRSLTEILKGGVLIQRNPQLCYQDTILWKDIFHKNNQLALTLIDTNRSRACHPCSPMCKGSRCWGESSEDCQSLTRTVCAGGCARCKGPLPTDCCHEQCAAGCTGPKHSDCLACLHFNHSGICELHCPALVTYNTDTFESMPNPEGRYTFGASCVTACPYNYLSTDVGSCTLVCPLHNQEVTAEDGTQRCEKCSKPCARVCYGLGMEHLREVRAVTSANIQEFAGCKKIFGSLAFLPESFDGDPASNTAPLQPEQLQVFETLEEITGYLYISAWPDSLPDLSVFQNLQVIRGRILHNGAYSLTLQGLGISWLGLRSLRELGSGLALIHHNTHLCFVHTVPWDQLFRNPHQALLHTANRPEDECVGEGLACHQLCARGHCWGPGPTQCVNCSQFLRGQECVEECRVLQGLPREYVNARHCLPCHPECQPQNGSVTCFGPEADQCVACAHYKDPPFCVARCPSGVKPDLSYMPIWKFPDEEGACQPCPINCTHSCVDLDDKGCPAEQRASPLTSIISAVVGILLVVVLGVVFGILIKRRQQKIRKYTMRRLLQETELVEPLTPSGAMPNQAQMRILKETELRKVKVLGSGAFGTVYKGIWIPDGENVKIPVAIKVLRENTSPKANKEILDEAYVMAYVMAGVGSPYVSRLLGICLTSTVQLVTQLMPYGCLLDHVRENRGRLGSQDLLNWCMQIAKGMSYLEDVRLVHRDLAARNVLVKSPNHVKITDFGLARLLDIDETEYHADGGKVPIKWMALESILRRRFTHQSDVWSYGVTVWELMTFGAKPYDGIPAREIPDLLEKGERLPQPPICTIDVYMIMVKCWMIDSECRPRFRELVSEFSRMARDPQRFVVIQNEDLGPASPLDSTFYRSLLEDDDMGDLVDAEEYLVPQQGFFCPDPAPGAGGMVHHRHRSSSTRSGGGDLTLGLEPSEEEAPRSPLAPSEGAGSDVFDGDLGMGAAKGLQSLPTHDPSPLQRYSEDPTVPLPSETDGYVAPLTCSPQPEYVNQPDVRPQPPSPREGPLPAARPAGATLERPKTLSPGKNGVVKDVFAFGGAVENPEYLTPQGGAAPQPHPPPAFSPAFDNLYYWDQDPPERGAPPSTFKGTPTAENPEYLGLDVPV
Description: • 1. EGFR(D770_N771insSVD) expressing Ba/F3 stable cell line • 2. EGFR (A767_dupASV) expressing Ba/F3 stable cell line • 3. A431 cells • 4. EGFR (H773insNPH) expressing Ba/F3 stable cell line • 5. HER2 (A775_G776insYVMA) expressing Ba/F3 stable cell line Assay Procedure: • 1. Seed cells at 5000 for A431 and 15,000 cells for Ba/F3 in 100 μL/well in complete media (for A431: DMEM with […] and for Ba/F3 cells: RPMI with 10% FBS) in 96-well tissue culture plate. Leave outer wells without cells for background measurements. Incubate at 37 degree Celsius in […] humidified incubator for 16-18 hours. • 2. Add 0.025 ml of 5× concentration compound dilution or DMSO control. Final compound concentration range is 10-0.0005 μM prepared in 3-fold serial dilutions. Incubate for 72 hr at 37 degree Celsius in […] humidified incubator. • 3. Add 0.0125 ml Alamar Blue™ reagent to each well with multi-channel pipette and tap gently on each side of the plate to mix. Incubate for 3 hours at 37 degree Celsius in 5% CO2 humidified incubator. • 4. […] Data analysis was performed using XLfit 5.5.0.5.

[4] = Homo sapiens, A-431; A431 cells, Alamar Blue, 72 hr; read-out: A431 IC50
[5] = Homo sapiens, A-431; A431 cells, 72 hr, Alamar Blue; read-out: A431 IC50

SMILES | GI50 [1] [µM] | GI50 [2] [µM] | IC50 (A431 cells; [4]) [µM] | GI50 [3] [µM] | IC50 (A431 cells; [5]) [µM]
COC/C=C/C(=O)Nc1ccc(F)c(Nc2nc(Nc3cnn(C)c3)ncc2Cl)c1 [Compound 6, (E)-N-(3-((5-chloro-2-((1-methyl-1H-pyrazol-4-yl)amino)pyrimidin-4-yl)amino)-4-fluorophenyl)-4-methoxybut-2-enamide] | > 10 | > 10 | > 10 | 9.01 | 
Cn1cc(Nc2ncc(Cl)c(Nc3cc(NC(=O)/C=C/CF)ccc3F)n2)cn1 [Compound 7, (E)-N-(3-((5-chloro-2-((1-methyl-1H-pyrazol-4-yl)amino)pyrimidin-4-yl)amino)-4-fluorophenyl)-4-fluorobut-2-enamide] | 3.27 | 0.995 | 8.73 | 3.22 | 
C=CC(=O)Nc1cccc(Nc2nc(Nc3cnn(C)c3)ncc2-c2ccc(C(F)(F)F)cc2)c1F [Compound 148, N-(2-fluoro-3-((2-((1-methyl-1H-pyrazol-4-yl)amino)-5-(4-(trifluoromethyl)phenyl)pyrimidin-4-yl)amino)phenyl)acrylamide trifluoroacetate] |  | 0.056 | 0.083 | 0.349 | 
C=CC(=O)Nc1ccc(F)c(Nc2nc(Nc3cnn(C)c3)ncc2N2CCCCC2)c1 [Compound 269, N-(4-fluoro-3-((2-((1-methyl-1H-pyrazol-4-yl)amino)-5-(piperidin-1-yl)pyrimidin-4-yl)amino)phenyl)acrylamide] |  |  |  | > 10 | 5.61
C=CC(=O)Nc1ccc(F)c(Nc2nc(Nc3cnn(C)c3)ncc2-c2ccc3c(cnn3C)c2)c1 [Compound 270, N-(4-fluoro-3-((5-(1-methyl-1H-indazol-5-yl)-2-((1-methyl-1H-pyrazol-4-yl)amino)pyrimidin-4-yl)amino)phenyl)acrylamide] |  |  |  | 0.985 | 0.19
C=CC(=O)Nc1ccc(F)c(Nc2nc(Nc3cnn(C(C)(C)C#N)c3)ncc2C2=CCOC2)c1 [Compound 272, N-(3-((2-((1-(2-cyanopropan-2-yl)-1H-pyrazol-4-yl)amino)-5-(2,5-dihydrofuran-3-yl)pyrimidin-4-yl)amino)-4-fluorophenyl)acrylamide] |  |  |  | 0.602 | 1.01
C=CC(=O)Nc1ccc(F)c(Nc2nc(Nc3cnn(C)c3)ncc2-c2ccc3[nH]ncc3c2)c1 [Compound 277, N-(3-((5-(1H-indazol-5-yl)-2-((1-methyl-1H-pyrazol-4-yl)amino)pyrimidin-4-yl)amino)-4-fluorophenyl)acrylamide] |  |  |  | 0.645 | 0.293
C=CC(=O)Nc1cccc(Nc2nc(Nc3cnn(C)c3)ncc2F)c1 [Compound 280, N-[3-({5-fluoro-2-[(1-methyl-1H-pyrazol-4-yl)amino]pyrimidin-4-yl}amino)phenyl]prop-2-enamide] |  |  |  | 5.16 | 0.52
C=CC(=O)Nc1ccc(F)c(Nc2nc(Nc3ccc(N(C)CCN(C)C)cc3)ncc2Cl)c1 [Compound 288, N-(3-((5-chloro-2-((4-((2-(dimethylamino)ethyl)(methyl)amino)phenyl)amino)pyrimidin-4-yl)amino)-4-fluorophenyl)acrylamide] |  |  |  | 3.04 | 4.91
C=CC(=O)Nc1cc(Br)cc(Nc2nc(Nc3cnn(C)c3)ncc2-c2ccc(C(F)(F)F)cc2)c1 [Compound 290, N-[3-bromo-5-({2-[(1-methyl-1H-pyrazol-4-yl)amino]-5-[4-(trifluoromethyl)phenyl]pyrimidin-4-yl}amino)phenyl]prop-2-enamide] |  |  |  | 2.92 | > 9.79
C=CC(=O)Nc1ccc(Cl)c(Nc2nc(Nc3cnn(C)c3)ncc2-c2ccc(Br)cc2)c1 [Compound 292, N-(3-((5-(4-bromophenyl)-2-((1-methyl-1H-pyrazol-4-yl)amino)pyrimidin-4-yl)amino)-4-chlorophenyl)acrylamide] |  |  |  | 8.83 | 1.02

Second part, the compound after the results:

GI50 [1] [µM] | GI50 [2] [µM] | IC50 (A431 cells; [4]) [µM] | GI50 [3] [µM] | IC50 (A431 cells; [5]) [µM] | SMILES
5.58 | 7.38 | > 10 | 4.28 |  | CN(C)C/C=C/C(=O)Nc1ccc(F)c(Nc2nc(Nc3cnn(C4CCC(O)CC4)c3)ncc2Cl)c1 (stereo not drawn) [Compound 5, (E)-N-(3-((5-chloro-2-((1-(4-hydroxycyclohexyl)-1H-pyrazol-4-yl)amino)pyrimidin-4-yl)amino)-4-fluorophenyl)-4-(dimethylamino)but-2-enamide]
7.45 | 7.58 | 8.59 | 4.99 |  | C=CC(=O)Nc1ccc(Cl)c(Nc2nc(Nc3cnn(C)c3)ncc2Cl)c1 [Compound 8, N-(4-chloro-3-((5-chloro-2-((1-methyl-1H-pyrazol-4-yl)amino)pyrimidin-4-yl)amino)phenyl)acrylamide]
 |  |  | > 10 | 3.44 | C=CC(=O)Nc1ccc(F)c(Nc2nc(Nc3cnn(C)c3)ncc2-c2cccc3ccncc23)c1 [Compound 268, N-(4-fluoro-3-((5-(isoquinolin-8-yl)-2-((1-methyl-1H-pyrazol-4-yl)amino)pyrimidin-4-yl)amino)phenyl)acrylamide]
 |  |  | 2.16 | 2.96 | C=CC(=O)Nc1ccc(F)c(Nc2nc(Nc3cnn(C(C)(C)C#N)c3)ncc2Br)c1 [Compound 271, N-(3-((5-bromo-2-((1-(2-cyanopropan-2-yl)-1H-pyrazol-4-yl)amino)pyrimidin-4-yl)amino)-4-fluorophenyl)acrylamide]
 |  |  | 2.63 | 3.93 | C=CC(=O)Nc1ccc(F)c(Nc2nc(Nc3cnn(CC(C)(C)O)c3)ncc2Br)c1 [Compound 273, N-(3-((5-bromo-2-((1-(2-hydroxy-2-methylpropyl)-1H-pyrazol-4-yl)amino)pyrimidin-4-yl)amino)-4-fluorophenyl)acrylamide]
0.029 |  |  | 0.12 | 0.022 | C=CC(=O)Nc1cccc(Nc2nc(Nc3cnn(C)c3)ncc2-c2ccc(Br)cc2)c1 [Compound 274, N-(3-((5-(4-bromophenyl)-2-((1-methyl-1H-pyrazol-4-yl)amino)pyrimidin-4-yl)amino)phenyl)acrylamide]
 |  |  | 3.05 | 1.43 | C=CC(=O)Nc1cccc(Nc2ncc(Cl)c(Nc3cnn(C)c3)n2)c1 [Compound 275, N-(3-((5-chloro-4-((1-methyl-1H-pyrazol-4-yl)amino)pyrimidin-2-yl)amino)phenyl)acrylamide]
 |  |  | 0.861 | 0.278 | C=CC(=O)Nc1ccc(F)c(Nc2nc(Nc3cnn(C)c3)ncc2-c2ccc(OCc3cccc(F)c3)cc2)c1 [Compound 276, N-(4-fluoro-3-((5-(4-((3-fluorobenzyl)oxy)phenyl)-2-((1-methyl-1H-pyrazol-4-yl)amino)pyrimidin-4-yl)amino)phenyl)acrylamide]
 |  |  | 0.444 | 0.073 | C=CC(=O)Nc1ccc(F)c(Nc2nc(Nc3cnn(C)c3)ncc2-c2ccn3ncnc3c2)c1 [Compound 278, N-(3-((5-([1,2,4]triazolo[1,5-a]pyridin-7-yl)-2-((1-methyl-1H-pyrazol-4-yl)amino)pyrimidin-4-yl)amino)-4-fluorophenyl)acrylamide]
 |  |  | 1.48 | 0.617 | C=CC(=O)Nc1cc(Br)cc(Nc2nc(Nc3cnn(C)c3)ncc2Cl)c1 [Compound 283, N-[3-bromo-5-({5-chloro-2-[(1-methyl-1H-pyrazol-4-yl)amino]pyrimidin-4-yl}amino)phenyl]prop-2-enamide]
 |  |  | 0.874 | 0.536 | C=CC(=O)Nc1ccc(F)c(Nc2nc(Nc3cnn(CCN(C)C)c3)ncc2Cl)c1 [Compound 284, N-(3-((5-chloro-2-((1-(2-(dimethylamino)ethyl)-1H-pyrazol-4-yl)amino)pyrimidin-4-yl)amino)-4-fluorophenyl)acrylamide]
 |  |  | 0.764 | 0.473 | C=CC(=O)Nc1ccc(F)c(Nc2nc(Nc3ccc(CN(C)C)cc3)ncc2Cl)c1 [Compound 287, N-(3-((5-chloro-2-((4-((dimethylamino)methyl)phenyl)amino)pyrimidin-4-yl)amino)-4-fluorophenyl)acrylamide]
 |  |  | 1.84 | > 10 | C=CC(=O)Nc1cc(Nc2nc(Nc3cnn(C)c3)ncc2Cl)cc(C(F)(F)F)c1 [Compound 291, N-(3-((5-chloro-2-((1-methyl-1H-pyrazol-4-yl)amino)pyrimidin-4-yl)amino)-5-(trifluoromethyl)phenyl)acrylamide]
 |  |  | > 10 | 7.79 | C=CC(=O)Nc1cc(Nc2nc(Nc3cnn(C)c3)ncc2Cl)cc2ccccc12 [Compound 297, N-(3-((5-chloro-2-((1-methyl-1H-pyrazol-4-yl)amino)pyrimidin-4-yl)amino)naphthalen-1-yl)acrylamide]
